# Test results published in ChEMBL document CHEMBL4043292, “Discovery and Optimization of Phosphopantetheine Adenylyltransferase Inhibitors with Gram-Negative Antibacterial Activity” (J Med Chem, 2018).
# pIC50: −log10 of the molar value.
# Key:
# Escherichia coli [1] = assay: microbe, parasite or virus in culture; conditions: BW25113, 20 h
# Description: Antibacterial activity against Escherichia coli BW25113 after 20 hrs by broth microdilution method
# Escherichia coli [2] = assay: microbe, parasite or virus in culture; conditions: JW5503-1, 20 h
# Description: Antibacterial activity against tolC deficient Escherichia coli JW5503-1 after 20 hrs by broth microdilution method
# physchem [3] = conditions: buffer, pH 7.4
# Description: Lipophilicity, log D of the compound at pH 7.4
# [4] = target: T1, Bifunctional coenzyme A synthase (Homo sapiens) (UniProt Q13057)
# T1 sequence (whole entry): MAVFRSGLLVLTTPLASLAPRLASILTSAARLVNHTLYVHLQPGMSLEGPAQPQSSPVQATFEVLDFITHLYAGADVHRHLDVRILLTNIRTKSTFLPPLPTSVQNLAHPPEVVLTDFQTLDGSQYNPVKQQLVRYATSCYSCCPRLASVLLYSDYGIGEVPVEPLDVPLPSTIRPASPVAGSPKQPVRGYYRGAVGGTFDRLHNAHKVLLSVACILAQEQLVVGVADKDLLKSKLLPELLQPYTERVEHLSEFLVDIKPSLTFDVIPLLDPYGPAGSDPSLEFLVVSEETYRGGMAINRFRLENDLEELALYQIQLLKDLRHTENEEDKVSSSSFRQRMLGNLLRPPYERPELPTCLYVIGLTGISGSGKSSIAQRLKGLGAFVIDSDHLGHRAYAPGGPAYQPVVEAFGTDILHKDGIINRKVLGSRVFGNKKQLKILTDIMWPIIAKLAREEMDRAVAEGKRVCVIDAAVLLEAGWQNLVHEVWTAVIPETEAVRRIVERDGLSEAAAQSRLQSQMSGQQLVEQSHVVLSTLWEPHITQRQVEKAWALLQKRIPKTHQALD
# Description: Inhibition of human coaSY expressed in tolC deficient Escherichia coli JWK0002 assessed as bacterial growth inhibition after 20 hrs by broth microdilution method
# Pseudomonas aeruginosa [5] = assay: microbe, parasite or virus in culture; conditions: K1119, 20 h
# Description: Antibacterial activity against mexAB deficient Pseudomonas aeruginosa K1119 after 20 hrs by broth microdilution method
# Pseudomonas aeruginosa [6] = assay: microbe, parasite or virus in culture; conditions: PAO1, 20 h
# Description: Antibacterial activity against Pseudomonas aeruginosa PAO1 after 20 hrs by broth microdilution method
# Escherichia coli [7] = assay: microbe, parasite or virus in culture; conditions: RFM795, 20 h
# Description: Antibacterial activity Escherichia coli RFM795 harboring frame deletion of 23 amino acids in lptD gene after 20 hrs by broth microdilution method
# Pseudomonas aeruginosa [8] = assay: microbe, parasite or virus in culture; conditions: ATCC 35151, 20 h
# Description: Antibacterial activity against Pseudomonas aeruginosa ATCC 35151 after 20 hrs by broth microdilution method
# Escherichia coli [9] = assay: microbe, parasite or virus in culture; conditions: JW0451-2, 20 h
# Description: Antibacterial activity against acrB deficient Escherichia coli JW0451-2 after 20 hrs by broth microdilution method
# in vitro = conditions: human, not told
# Description: Efflux ratio in human microsomes
# [10] = Inhibition of PPAT in tolC deficient Escherichia coli JW5503-1 assessed as reduction in level of CoA-SH metabolite by mass spectrometric method
# Escherichia coli [11] = assay: Ratio of IC50 for PPAT in Escherichia coli BW25113 assessed as reduction in level of CoA-SH metabolite to IC50 for PPAT in tolC deficient Escherichia coli JW5503-1 assessed as reduction in level of CoA-SH metabolite
# [12] = Inhibition of PPAT in Escherichia coli BW25113 assessed as reduction in level of CoA-SH metabolite by mass spectrometric method
# physchem [13] = conditions: PBS
# Description: Solubility of the compound in PBS
SMILES,MIC (Escherichia coli [1]) [µg/mL],MIC (Escherichia coli [2]) [µg/mL],logD (physchem [3]),also measured
Cc1cc(NC[C@@H](N)c2nccn2C)n2nc(N[C@H](CC#N)c3cccc(Cl)c3)nc2n1,> 128,4,,
Cc1cc(N2CCN(C)CC2)c2[nH]c(N[C@H](CC#N)c3cccc(Cl)c3)nc2n1,64,2,,MIC [4]: 128 µg/mL; MIC (Pseudomonas aeruginosa [5]): > 128 µg/mL; MIC (Pseudomonas aeruginosa [6]): > 128 µg/mL; MIC (Escherichia coli [7]): 8 µg/mL; MIC (Pseudomonas aeruginosa [8]): 128 µg/mL; MIC (Escherichia coli [9]): 8 µg/mL
COC(=O)c1ccc(Oc2cccc([C@@H](CC#N)Nc3nc4[nH]c(C)cc(=O)n4n3)c2)cc1,,2,2,
COC(=O)N1CCC(Oc2cccc([C@@H](CC#N)Nc3nc4nc(C)cc(N5CCN(C)CC5)c4[nH]3)c2)CC1,> 128,4,,MIC [4]: > 128 µg/mL; MIC (Pseudomonas aeruginosa [5]): > 128 µg/mL; MIC (Pseudomonas aeruginosa [6]): > 128 µg/mL; MIC (Escherichia coli [7]): 64 µg/mL; MIC (Pseudomonas aeruginosa [8]): > 128 µg/mL; efflux ratio (in vitro): 0.56; MIC (Escherichia coli [9]): 64 µg/mL
Cc1cc(=O)n2nc(N[C@H](C)c3cccc(Cl)c3)nc2[nH]1,,> 128,,
Cc1cc(NC[C@@H](N)c2ccncc2)n2nc(N[C@H](CC#N)c3cccc(Cl)c3)nc2n1,> 128,4,2.2,
Cc1cc(NC[C@@H](N)c2c(C)noc2C)n2nc(N[C@H](CC#N)c3cccc(Cl)c3)nc2n1,> 128,1,,
COC(=O)N1CCC(CNCCO)(Cc2cccc([C@@H](CC#N)Nc3nc4nc(C)ccc4[nH]3)c2)CC1,> 128,32,,
Cc1ccc2[nH]c(N[C@H](CC#N)c3cccc(Cl)c3)nc2n1,> 128,4,,pIC50 [10]: 6.43; Ratio IC50 (Escherichia coli [11]): 13; pIC50 [12]: 5.32
COC(=O)N1CCC(Oc2cccc([C@@H](CC#N)Nc3nc4[nH]c(C)cc(=O)n4n3)c2)CC1,> 128,8,0.64,pIC50 [10]: 6.35; pIC50 [12]: < 3.70
Cc1cc(N2CC(N(C)C)C2)n2nc(N[C@H](CC#N)c3cccc(Cl)c3)nc2n1,> 128,4,2.8,
Cc1cc(NC[C@@H](N)c2ccccn2)n2nc(N[C@H](CC#N)c3cccc(Cl)c3)nc2n1,> 128,2,1.9,
Cc1cc(Nc2ccc3nc(C)sc3c2)n2nc(N[C@H](C)c3cccc(Cl)c3)nc2n1,> 128,1,4.4,
Cc1cc(NC[C@@H](N)C2CC2)n2nc(N[C@H](CC#N)c3cccc(Cl)c3)nc2n1,> 128,8,1.3,
COC(=O)N1CCC(Cc2cccc([C@@H](CC#N)Nc3nc4nc(C)ccc4[nH]3)c2)(C(=O)O)CC1,> 128,16,0.02,
Cc1cc(NC[C@@H](N)c2ccsc2)n2nc(N[C@H](CC#N)c3cccc(Cl)c3)nc2n1,64,1,3,
COC(=O)N1CCN(S(=O)(=O)c2cccc([C@@H](CC#N)Nc3nc4nc(C)ccc4[nH]3)c2)CC1,> 128,32,2,
Cc1cc(N[C@H]2C[C@@H]2c2ccccc2)n2nc(N[C@H](C)c3cccc(Cl)c3)nc2n1,> 128,2,4.9,

SMILES,MIC (Escherichia coli [1]) [µg/mL],MIC (Escherichia coli [2]) [µg/mL],logD (physchem [3]),also measured
Cc1cc(N2CCN(C)CC2)n2nc(N[C@H](CC#N)c3cccc(Cl)c3)nc2n1,> 128,4,2.4,pIC50 [10]: 7.01; solubility (physchem [13]): > 729 µg/mL; pIC50 [12]: 4.39
Cc1cc(Nc2ccc(C)c(Cl)c2)n2nc(Cc3ccccc3)nc2n1,,,> 5,
Cc1cc(NC[C@H](N)c2ccccc2)n2nc(N[C@H](CC#N)c3cccc(Cl)c3)nc2n1,> 128,8,3.2,
COC(=O)N1CCC(S(=O)(=O)c2cccc([C@@H](CC#N)Nc3nc4nc(C)ccc4[nH]3)c2)CC1,> 128,2,1.9,
COc1ccc(Oc2cccc([C@@H](C)Nc3nc4[nH]c(C)cc(=O)n4n3)c2)cc1,,64,,
COC(=O)N1CC[C@H](Oc2cccc([C@@H](CC#N)Nc3nc4nc(C)ccc4[nH]3)c2)C1,> 128,4,2.7,
Cc1cc(N2CCN(C)CC2)n2nc(N[C@H](C)c3cccc(Cl)c3)nc2n1,> 128,32,3.3,
Cc1cc(NCCc2ccccc2)n2nc(N[C@H](C)c3cccc(Cl)c3)nc2n1,> 128,4,> 4.8,
Cc1cc(NCCc2c(C)n[nH]c2C)n2nc(N[C@H](C)c3cccc(Cl)c3)nc2n1,> 128,2,2.9,
COC(=O)N1CCC(O)(Cc2cccc([C@@H](CC#N)Nc3nc4nc(C)ccc4[nH]3)c2)CC1,> 128,2,2.1,
COC(=O)N1CCN(Cc2cccc([C@@H](CC#N)Nc3nc4nc(C)ccc4[nH]3)c2)C(=O)C1,,,1.4,
COC(=O)N1CC[C@@H](Oc2cccc([C@@H](CC#N)Nc3nc4nc(C)ccc4[nH]3)c2)C1,> 128,> 128,2.8,
COC(=O)N1CCC(CO)(Cc2cccc([C@@H](CC#N)Nc3nc4nc(C)ccc4[nH]3)c2)CC1,> 128,1,,
COC(=O)N1CC[C@@H](Cc2cccc([C@@H](CC#N)Nc3nc4nc(C)ccc4[nH]3)c2)C1,> 128,1,3.1,
Cc1cc(N2CC(N(C)C)C2)n2nc(N[C@H](C)c3cccc(Cl)c3)nc2n1,> 128,> 128,,
Cc1cc(NC[C@@H](N)c2cccnc2)n2nc(N[C@H](CC#N)c3cccc(Cl)c3)nc2n1,> 128,4,2.3,
Cc1cc(=O)n2nc(N[C@H](CC#N)c3cccc(Cl)c3)nc2[nH]1,> 128,16,,pIC50 [10]: 6.23; pIC50 [12]: < 3.70

# The next lines start with results.
MIC (Escherichia coli [1]) [µg/mL],MIC (Escherichia coli [2]) [µg/mL],logD (physchem [3]),SMILES,also measured
> 128,0.25,3.6,Cc1cc(NC[C@@H](O)c2ccccc2)n2nc(N[C@H](CC#N)c3cccc(Cl)c3)nc2n1,
64,0.25,3.7,Cc1cc(NC[C@@H](N)c2cccc(F)c2)n2nc(N[C@H](CC#N)c3cccc(Cl)c3)nc2n1,
> 128,0.5,,COC(=O)N1CCC(CCC(=O)O)(Cc2cccc([C@@H](CC#N)Nc3nc4nc(C)ccc4[nH]3)c2)CC1,
> 128,0.25,,COC(=O)N1CCC(CCCO)(Cc2cccc([C@@H](CC#N)Nc3nc4nc(C)ccc4[nH]3)c2)CC1,
> 128,0.5,3.8,Cc1cc(NCCc2c(C)n[nH]c2C)n2nc(N[C@H](CC#N)c3cccc(Cl)c3)nc2n1,pIC50 [10]: 7.92; solubility (physchem [13]): 23.8 µg/mL; pIC50 [12]: 4.13
64,0.125,,COC(=O)N1CC[C@H](Cc2cccc([C@@H](CC#N)Nc3nc4nc(C)ccc4[nH]3)c2)C1,
> 128,0.25,3.5,CO/N=C/C1(Cc2cccc([C@@H](CC#N)Nc3nc4nc(C)ccc4[nH]3)c2)CCN(C(=O)OC)CC1,
64,0.25,3.3,Cc1cc(NC[C@@H](N)c2cccs2)n2nc(N[C@H](CC#N)c3cccc(Cl)c3)nc2n1,
32,0.25,3.4,Cc1cc(NC[C@@H](N)c2ccccc2)n2nc(N[C@H](CC#N)c3cccc(Cl)c3)nc2n1,
64,0.5,,Cc1cc(NC[C@@H](N)c2ccc(F)cc2)n2nc(N[C@H](CC#N)c3cccc(Cl)c3)nc2n1,
> 128,0.06,3.9,CC(=O)N1CCc2cc(Nc3cc(C)nc4nc(N[C@H](CC#N)c5cccc(Cl)c5)nn34)ccc21,pIC50 [10]: > 8.22; solubility (physchem [13]): < 0.6 µg/mL; pIC50 [12]: 5.62
64,0.125,3.2,Cc1cc(NC[C@@H](N)c2ccccc2F)n2nc(N[C@H](CC#N)c3cccc(Cl)c3)nc2n1,
> 128,0.125,4.6,CC(=O)N1CCc2cc(Nc3cc(C)nc4nc(N[C@H](C)c5cccc(Cl)c5)nn34)ccc21,
> 128,0.5,,COC(=O)N1CCC(CCC#N)(Cc2cccc([C@@H](CC#N)Nc3nc4nc(C)ccc4[nH]3)c2)CC1,
64,0.06,3.7,COC(=O)N1CCC(Sc2cccc([C@@H](CC#N)Nc3nc4nc(C)ccc4[nH]3)c2)CC1,
